Test results: ChEMBL document CHEMBL1131663, “Terphenyl cyclooxygenase-2 (COX-2) inhibitors: optimization of the central ring and o-biphenyl analogs” (Bioorg Med Chem Lett, 1999)

Legend:
[1] = biological target: T1, Prostaglandin G/H synthase 1 (Ovis aries, UniProt P05979); assay: In vitro inhibitory concentration against ovine COX-1
T1 sequence (P05979 whole entry): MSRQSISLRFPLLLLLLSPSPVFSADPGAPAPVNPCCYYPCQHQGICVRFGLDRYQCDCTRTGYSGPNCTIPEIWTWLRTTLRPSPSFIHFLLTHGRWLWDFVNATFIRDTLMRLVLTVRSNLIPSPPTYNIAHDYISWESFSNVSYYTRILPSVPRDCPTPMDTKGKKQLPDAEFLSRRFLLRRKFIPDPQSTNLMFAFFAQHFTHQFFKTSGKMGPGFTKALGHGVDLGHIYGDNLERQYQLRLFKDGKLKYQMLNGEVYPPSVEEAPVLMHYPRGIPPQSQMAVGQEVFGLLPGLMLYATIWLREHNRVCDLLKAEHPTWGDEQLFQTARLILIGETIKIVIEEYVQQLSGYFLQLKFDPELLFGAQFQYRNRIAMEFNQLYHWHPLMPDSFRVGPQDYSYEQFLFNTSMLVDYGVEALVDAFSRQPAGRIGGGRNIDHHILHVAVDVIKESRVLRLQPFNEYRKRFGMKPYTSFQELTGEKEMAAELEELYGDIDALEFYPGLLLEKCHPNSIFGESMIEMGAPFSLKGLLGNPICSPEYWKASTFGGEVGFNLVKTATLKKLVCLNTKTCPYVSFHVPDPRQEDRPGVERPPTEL

[2] = biological target: T2, Prostaglandin G/H synthase 2 (Homo sapiens, UniProt P35354); assay: In vitro inhibitory concentration against recombinant human Prostaglandin G/H synthase 2 obtained from baculovirus
T2 sequence (P35354 whole entry): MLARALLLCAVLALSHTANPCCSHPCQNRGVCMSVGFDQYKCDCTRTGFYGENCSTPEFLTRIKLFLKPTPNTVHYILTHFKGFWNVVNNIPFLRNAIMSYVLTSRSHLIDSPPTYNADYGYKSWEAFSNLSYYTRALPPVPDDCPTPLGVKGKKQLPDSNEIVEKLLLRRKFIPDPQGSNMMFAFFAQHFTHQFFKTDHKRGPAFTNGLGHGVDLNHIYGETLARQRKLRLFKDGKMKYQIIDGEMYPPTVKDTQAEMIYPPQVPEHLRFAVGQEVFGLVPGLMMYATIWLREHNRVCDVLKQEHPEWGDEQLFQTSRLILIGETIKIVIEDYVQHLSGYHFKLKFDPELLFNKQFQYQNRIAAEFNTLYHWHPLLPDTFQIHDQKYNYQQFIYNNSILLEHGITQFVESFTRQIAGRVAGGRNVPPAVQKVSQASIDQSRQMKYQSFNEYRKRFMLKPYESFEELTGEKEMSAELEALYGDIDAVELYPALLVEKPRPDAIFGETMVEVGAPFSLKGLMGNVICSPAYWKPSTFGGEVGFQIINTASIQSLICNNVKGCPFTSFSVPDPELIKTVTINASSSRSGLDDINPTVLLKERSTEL

SMILES	IC50 [1] [µM]	IC50 [2] [µM]
CS(=O)(=O)c1ccc(-c2ccc([N+](=O)[O-])cc2-c2ccccc2)cc1	> 100	44
CS(=O)(=O)c1ccc(-c2ccccc2-c2ccc3ccccc3n2)cc1	> 1000	57
CS(=O)(=O)c1ccc(-c2cc([N+](=O)[O-])ccc2-c2ccccc2)cc1	> 300	38
COc1ccc2cc(-c3ccccc3-c3ccc(S(C)(=O)=O)cc3)ccc2c1	> 1000	30
CS(=O)(=O)c1ccc(-c2cc3ccccc3cc2-c2ccccc2)cc1	> 300	41
CS(=O)(=O)c1ccc(-c2cc(N)ccc2-c2ccccc2)cc1	35	194
CN1CC=C(c2ccccc2-c2ccc(S(C)(=O)=O)cc2)CC1	> 300	> 300
CS(=O)(=O)c1ccc(-c2nccnc2-c2ccccc2)cc1	> 300	> 300
COC(=O)c1ccc(-c2ccccc2)c(-c2ccc(S(C)(=O)=O)cc2)c1	> 300	48
CS(=O)(=O)c1ccc(-c2cc(C(=O)O)ccc2-c2ccccc2)cc1	232	> 300

Results, then the molecule that gave them:

IC50 [1] [µM]	IC50 [2] [µM]	SMILES
> 1000		CS(=O)(=O)c1ccc(-c2ccccc2-c2ccccc2)cc1
> 300	> 300	CS(=O)(=O)c1ccc(-c2ccccc2-c2cncnc2)cc1
> 300	> 300	CS(=O)(=O)c1ccc(-c2ccccc2-c2ccncc2)cc1
43	14	CS(=O)(=O)c1ccc(-c2ccccc2N2CCCCC2)cc1
> 1000	31	CS(=O)(=O)c1ccc(-c2ccccc2C2CCCCC2)cc1
> 1000	33	CS(=O)(=O)c1ccc(-c2ccccc2Oc2ccccc2)cc1
404	147	CS(=O)(=O)c1ccc(-c2cc(O)ccc2-c2ccccc2)cc1
> 1000	33	CS(=O)(=O)c1ccc(-c2ccccc2C2=CCCCC2)cc1
> 300	> 300	CS(=O)(=O)c1ccc(-c2ccccc2Cc2ccccc2)cc1
> 300	87	CS(=O)(=O)c1ccc(-c2ccccc2-c2cccnc2)cc1
> 300	> 300	CS(=O)(=O)c1ccc(-c2ccccc2-c2ccccn2)cc1
17	254	CS(=O)(=O)c1ccc(-c2ccc(N)cc2-c2ccccc2)cc1
> 300	> 300	CS(=O)(=O)c1ccc(-c2ncccc2-c2ccccc2)cc1
> 1000		CS(=O)(=O)c1ccc(-c2cccnc2-c2ccccc2)cc1
